Experimental data from BindingDB's records for doi:10.1016/j.ejmech.2009.09.045 (Sri Venkateswara University, 2010).

molecular target: T1, Catalase (Rattus norvegicus, UniProt P04762); assay: Inhibition of catalase in Wistar rat brain
T1 sequence (P04762 whole entry): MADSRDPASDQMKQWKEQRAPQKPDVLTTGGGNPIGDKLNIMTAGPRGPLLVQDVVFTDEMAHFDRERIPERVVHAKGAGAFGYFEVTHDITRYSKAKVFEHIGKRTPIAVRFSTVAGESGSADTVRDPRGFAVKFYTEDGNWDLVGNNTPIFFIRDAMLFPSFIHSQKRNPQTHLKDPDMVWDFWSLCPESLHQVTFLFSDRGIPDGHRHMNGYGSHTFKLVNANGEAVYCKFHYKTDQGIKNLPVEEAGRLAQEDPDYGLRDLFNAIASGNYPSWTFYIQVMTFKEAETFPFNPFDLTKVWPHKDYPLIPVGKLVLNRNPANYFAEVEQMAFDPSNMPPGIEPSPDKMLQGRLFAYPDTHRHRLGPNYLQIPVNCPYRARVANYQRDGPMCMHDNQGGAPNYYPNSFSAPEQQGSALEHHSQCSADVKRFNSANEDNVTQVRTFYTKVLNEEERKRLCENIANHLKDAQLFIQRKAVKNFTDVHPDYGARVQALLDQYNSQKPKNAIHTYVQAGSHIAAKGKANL

Structure (SMILES)	EC50
COc1ccc2c3c1O[C@H]1C[C@@H](OP(=O)(OCCO)N(CCCl)CCCl)C=C[C@@]31CCN(C)C2 (some centres not stated)	4.12 µM
COc1ccc2c3c1O[C@H]1C[C@@H](OP(=O)(NCCO)N(CCCl)CCCl)C=C[C@@]31CCN(C)C2 (some centres not stated)	2.84 µM
COc1ccc2c3c1O[C@H]1C[C@@H](OP(=O)(SCCO)N(CCCl)CCCl)C=C[C@@]31CCN(C)C2 (some centres not stated)	3.02 µM
COc1ccc2c3c1O[C@H]1C[C@@H](OP(=O)(NCCN)N(CCCl)CCCl)C=C[C@@]31CCN(C)C2 (some centres not stated)	5.11 µM
COc1ccc2c3c1O[C@H]1C[C@@H](OP(=O)(NCCO)Oc4ccc([N+](=O)[O-])cc4)C=C[C@@]31CCN(C)C2 (some centres not stated)	9.29 µM
COc1ccc2c3c1O[C@H]1C[C@@H](OP(=O)(NCCN)Oc4ccc([N+](=O)[O-])cc4)C=C[C@@]31CCN(C)C2 (some centres not stated)	3.41 µM
COc1ccc2c3c1O[C@H]1C[C@@H](OP(=O)(OCCO)Oc4ccc([N+](=O)[O-])cc4)C=C[C@@]31CCN(C)C2 (some centres not stated)	6.15 µM
COc1ccc2c3c1O[C@H]1C[C@@H](OP(=O)(OP(=O)(O)O)N(CCCl)CCCl)C=C[C@@]31CCN(C)C2 (some centres not stated)	3.81 µM
COc1ccc2c3c1O[C@H]1C[C@@H](OP(=O)(Oc4ccc([N+](=O)[O-])cc4)SCCO)C=C[C@@]31CCN(C)C2 (some centres not stated)	7.74 µM
COc1ccc2c3c1O[C@H]1C[C@@H](OP(=O)(Oc4ccc([N+](=O)[O-])cc4)OP(=O)(O)O)C=C[C@@]31CCN(C)C2 (some centres not stated)	5.13 µM
Cc1c(C)c2c(c(C)c1O)CC[C@@](C)(CCC[C@H](C)CCC[C@H](C)CCCC(C)C)O2 [CHEBI:18145]	3.43 µM
COc1ccc2c3c1O[C@H]1C[C@@H](O)C=C[C@@]31CCN(C)C2 [galantamine]	17.6 µM
